Assay results as given in patent US11179390B2, “Subcutaneous administration of a P2Y12 receptor antagonist” (Idorsia Pharmaceuticals Ltd, priority 2017, dated 2021).
Several values for one entry are separate records, joined by “and”; a condition that tells them apart may be missing. Identical values can stand only once. Counter-ions that a name gives are not always drawn.

How the values were obtained:
[1] = tested on: ADP-induced AF488-Fibrinogen binding on mouse platelets; test: AF488-Fibrinogen binding assay on whole blood after subcutaneous administration of P2Y12 receptor antagonists; assay type: in vivo, mouse (male Balb/c)
Source text: In-Vivo Measurements of Time Dependent Platelet Inhibition after Subcutaneous Administration of P2Y12 Receptor Antagonists:
Male Balb/c mice were purchased from Charles River laboratories (Sulzfeld, Germany). All animals were maintained under identical conditions in accordance with the guidelines of the Basel-Landschaft cantonal veterinary office. Husbandry was accomplished in professional animal housing facilities, which provided group-cages, standard diet/water ad libitum, and standard illumination and climate conditions. The technical assistants performed at least one inspection per day. Sufficient time was provided for the animals to be accustomed to the experimental environment. Stress reduction was provided also by enrichment of cages, and providing the possibility to retire to dark housings (taking advantage of the color blindness of albino mice in the red range of the light spectrum). Inside the red housing the animals have the impression of being in the dark, while this housing remains visible to normal human vision.
Compound 1 hydrochloride, 0.2 mg/kg (respectively 5 mL/kg)
Elinogrel, 30 mg/kg (respectively 5 mL/kg)
Cangrelor, 0.2 mg/kg (respectively 5 mL/kg)
After an acclimatization period of at least 7 days, mice were anesthetized with Isoflurane (2-5%). The animals were then placed on a thermostatically-controlled heating table to maintain body temperature at 36-38° C. A polyurethane catheter (BTPU-027) was inserted into the right jugular vein and advanced into the vena cava for infusion of Heparin and to collect blood. […] Therefore Heparin (4000 U/kg/2.5 mL) was intravenously injected to prevent blood from coagulation.
Two minutes after the injection of Heparin, 60 μL of whole blood was collected via the vena cava catheter (baseline). […] 10, 20, 30, 40 and 60 minutes after the subcutaneous injection of the test compounds, 60 μL of whole blood were collected via the vena cava catheter for the fibrinogen binding assay.
(§1) This assay is particularly well adapted for reliable studies of the effect of P2Y12 antagonists on mouse platelets under in vitro and in vivo conditions. The assay allows to measure ADP-induced AF488-Fibrinogen binding on mouse platelets in only 6 μL whole blood and without washing steps.
(§2) Next, 10 μL of AF488-Fibrinogen (to give 0.5 mg/mL final concentration) were added followed by incubation of 5 minutes. To induce AF488-Fibrinogen binding, the platelets were then incubated with 10 μL ADP (to give 20 μM final concentration) for 5 minutes. In addition, an incubation with a platelet specific Allophycocyanin (APC) anti-Mouse CD61 (integrin beta 3) antibody (clone 2C9.G2) was performed for 10 minutes. The platelets were then fixed by addition of 34 μL cold paraformaldehyde solution (to give 0.1% final concentration) and stored at 4° C. for about 20 minutes. The samples were finally diluted with 1.8 mL cold PBS and put on hold at 4° C. for at least 2 hours, time necessary for gently red blood cell lysis, before measuring by flow cytometry.
Flow cytometry was performed using a FACSCanto II instrument (BD Bioscience). The setting of fluorescence compensation was not required due to the use of two different lasers.
Platelets were first detected using the platelet specific fluorescence signal of APC-CD61 (APC-settings for fluorescence emission peak at 660 nm). The platelet population was then gated using forward-scatter (FSC) and side-scatter (SSC) and their FITC-labeled Fibrinogen signal (FITC-settings for fluorescence emission peak at 525 nm) was quantitated as Mean Fluorescence Intensity (MFI) of 5000 platelets. For each sample, the MFI from corresponding nonspecific sample was subtracted.

[2] = tested on: ADP-induced AF488-Fibrinogen binding on platelets; test: In vitro inhibition of ADP-induced AF488-Fibrinogen binding (nonspecific signal control); assay type: cell-based; details: Mus musculus, Platelet, 0.25 h; 2 μM final concentration in diluted blood, 15 minutes at RT, 20 μM ADP; prior experiments
Method: as §1
as §2, with “The blood was first incubated with 4 μL vehicle or 4 μL Compound 1 hydrochloride (to give 2 μM final concentration in diluted blood) for 15 minutes at RT. This concentration of Compound 1 hydrochloride was determined in prior experiments to inhibit 100% of ADP-induced AF488-Fibrinogen binding on platelets and represents the nonspecific signal. Next,” for “Next,”

CSCCNc1nc(SCCC(F)(F)F)nc2c1ncn2[C@@H]1O[C@H](COP(=O)(O)OP(=O)(O)C(Cl)(Cl)P(=O)(O)O)[C@@H](O)[C@H]1O [Cangrelor]
Mean Fluorescence Intensities of AF488-Fibrinogen binding to platelets ([1]; 0.2 mg/kg s.c., 10 min after injection): 1596 MFI and 1628 MFI and 2550 MFI | Mean Fluorescence Intensities of AF488-Fibrinogen binding to platelets ([1]; 0.2 mg/kg s.c., 20 min after injection): 713 MFI and 1364 MFI and 1012 MFI | Mean Fluorescence Intensities of AF488-Fibrinogen binding to platelets ([1]; 0.2 mg/kg s.c., 40 min after injection): 765 MFI and 732 MFI and 921 MFI | Mean Fluorescence Intensities of AF488-Fibrinogen binding to platelets ([1]; 0.2 mg/kg s.c., 60 min after injection): 1048 MFI and 682 MFI and 961 MFI | Mean Fluorescence Intensities of AF488-Fibrinogen binding to platelets ([1]; 0.2 mg/kg s.c., time 0 min (baseline, before injection)): 6200 MFI and 7453 MFI and 5476 MFI

CNc1cc2[nH]c(=O)n(-c3ccc(NC(=O)NS(=O)(=O)c4ccc(Cl)s4)cc3)c(=O)c2cc1F [Elinogrel]
Mean Fluorescence Intensities of AF488-Fibrinogen binding to platelets ([1]; 30 mg/kg s.c., 10 min after injection): 4403 MFI and 4712 MFI and 3842 MFI and 3840 MFI | Mean Fluorescence Intensities of AF488-Fibrinogen binding to platelets ([1]; 30 mg/kg s.c., 20 min after injection): 2374 MFI and 3847 MFI and 2177 MFI and 4078 MFI | Mean Fluorescence Intensities of AF488-Fibrinogen binding to platelets ([1]; 30 mg/kg s.c., 40 min after injection): 1644 MFI and 1768 MFI and 1652 MFI and 2619 MFI | Mean Fluorescence Intensities of AF488-Fibrinogen binding to platelets ([1]; 30 mg/kg s.c., 60 min after injection): 2034 MFI and 1503 MFI and 1515 MFI and 2191 MFI | Mean Fluorescence Intensities of AF488-Fibrinogen binding to platelets ([1]; 30 mg/kg s.c., time 0 min (baseline, before injection)): 8124 MFI and 5370 MFI and 7045 MFI and 7097 MFI

CCCCOC(=O)N1CCN(C(=O)[C@H](CP(=O)(O)O)NC(=O)c2cc(N3CC[C@H](OC)C3)nc(-c3ccccc3)n2)CC1 [Compound 1 hydrochloride, ((R)-3-(4-(butoxycarbonyl)piperazin-1-yl)-2-(6-((S)-3-methoxypyrrolidin-1-yl)-2-phenylpyrimidine-4-carboxamido)-3-oxopropyl)phosphonic acid hydrochloride]
inhibition at 2 µM [2]: 100%
